“And” between values parts separate entries of the source, which are not always exact repeats. Equal entries are not always repeated. Marks after values point to notes of the source that are not given here.
Key:
M2 wild type = M2 wild type (Homo sapiens, UniProt P08172); format: binding
wild type M4 receptors = format: binding, human
M3 D114N/D148N [1] = target: T1, M3 D114N/D148N (Homo sapiens, UniProt P20309, D114N/D148N)
M2 D103N = M2 D103N (Homo sapiens, UniProt P08172, D103N); format: binding
Chain of M2 D103N (P08172 whole entry D103N, looked up): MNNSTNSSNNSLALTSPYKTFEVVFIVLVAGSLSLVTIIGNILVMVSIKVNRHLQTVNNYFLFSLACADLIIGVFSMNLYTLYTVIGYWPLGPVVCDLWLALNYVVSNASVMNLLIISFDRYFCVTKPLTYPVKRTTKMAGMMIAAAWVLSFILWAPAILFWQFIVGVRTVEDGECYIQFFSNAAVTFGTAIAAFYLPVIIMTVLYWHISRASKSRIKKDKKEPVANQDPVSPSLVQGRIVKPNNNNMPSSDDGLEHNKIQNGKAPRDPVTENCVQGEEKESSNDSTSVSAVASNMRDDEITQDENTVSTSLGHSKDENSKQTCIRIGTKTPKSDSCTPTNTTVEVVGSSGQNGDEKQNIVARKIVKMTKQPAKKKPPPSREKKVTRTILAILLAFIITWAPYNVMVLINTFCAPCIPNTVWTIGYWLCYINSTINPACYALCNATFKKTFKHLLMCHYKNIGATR

M2 D69N = format: binding, human
M2 D103N + M2 D69N = format: binding, human
M2 D69N/D103N [2] = target: T2, M2 D69N/D103N (Homo sapiens, UniProt P08172, D103N/D69N); format: binding
T2 sequence (P08172 whole entry D69N/D103N, looked up): as the sequence (P08172 whole entry D103N, looked up) above, with D69N counted along it

M3 D148N = format: binding, human
M3 D114N = format: binding, human
M3 D148N + M3 D114N = format: binding, human
M3 D114N/D148N [3] = target: T1, M3 D114N/D148N; format: binding
M4 D112N = format: binding, human
M4 D78N = format: binding, human
M4 D1 12N + M4 D78N = format: binding, human
M4 D78N/D112N [4] = target: T3, M4 D78N/D112N (Homo sapiens, UniProt P08173, D112N/D78N); format: binding
T3 sequence (P08173 whole entry D78N/D112N, looked up): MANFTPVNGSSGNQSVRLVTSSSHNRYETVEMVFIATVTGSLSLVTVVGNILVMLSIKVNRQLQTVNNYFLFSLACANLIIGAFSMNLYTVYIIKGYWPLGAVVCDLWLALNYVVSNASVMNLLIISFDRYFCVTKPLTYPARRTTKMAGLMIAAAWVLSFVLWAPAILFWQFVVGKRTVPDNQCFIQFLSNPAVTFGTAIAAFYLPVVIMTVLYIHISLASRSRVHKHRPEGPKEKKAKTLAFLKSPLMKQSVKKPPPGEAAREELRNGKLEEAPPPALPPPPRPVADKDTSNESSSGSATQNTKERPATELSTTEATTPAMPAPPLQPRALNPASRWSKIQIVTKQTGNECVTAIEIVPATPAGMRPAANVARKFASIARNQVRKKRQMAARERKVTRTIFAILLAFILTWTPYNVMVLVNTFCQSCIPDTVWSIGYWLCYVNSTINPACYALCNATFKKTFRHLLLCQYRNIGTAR

wild type M4 receptor = wild type M4 receptor (Homo sapiens, UniProt P08173); experiment: biochemical; format: binding
Chain of wild type M4 receptor (P08173 whole entry): as the sequence (P08173 whole entry D78N/D112N, looked up) above, with N78D, N112D counted along it

M2 D69N/D103N [5] = target: T2, M2 D69N/D103N; format: binding; remark: listed apart in the source
M4 D78N/D112N [6] = target: T3, M4 D78N/D112N; format: binding; remark: listed apart in the source
M2 D69N/D103N [7] = target: T2, M2 D69N/D103N; experiment: biochemical; format: binding
M4 D78N/D112N [8] = target: T3, M4 D78N/D112N; experiment: biochemical; format: binding
[9] = target: wild type M1 muscarinic receptors (Homo sapiens, UniProt P11229); format: binding
Chain of wild type M1 muscarinic receptors (P11229 whole entry): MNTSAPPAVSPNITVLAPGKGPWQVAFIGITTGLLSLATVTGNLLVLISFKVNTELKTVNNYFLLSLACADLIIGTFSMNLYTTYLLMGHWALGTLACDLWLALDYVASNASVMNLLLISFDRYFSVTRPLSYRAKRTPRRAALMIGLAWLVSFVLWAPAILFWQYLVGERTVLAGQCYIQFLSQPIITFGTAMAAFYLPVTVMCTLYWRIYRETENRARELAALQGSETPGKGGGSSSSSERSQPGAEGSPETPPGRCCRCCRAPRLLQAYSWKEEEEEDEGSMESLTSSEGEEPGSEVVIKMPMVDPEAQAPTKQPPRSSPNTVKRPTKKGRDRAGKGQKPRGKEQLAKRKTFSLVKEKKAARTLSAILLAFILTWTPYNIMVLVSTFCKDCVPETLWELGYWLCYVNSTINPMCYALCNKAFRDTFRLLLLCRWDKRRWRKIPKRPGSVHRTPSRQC

[10] = target: wild type M2 muscarinic receptors (Homo sapiens, UniProt P08172); format: binding
Chain of wild type M2 muscarinic receptors (P08172 whole entry): as the sequence (P08172 whole entry D103N, looked up) above, with N103D counted along it

[11] = tested on: cerebral muscarinic receptors; format: binding, rat
M3 receptors = format: binding, human
M4 receptors = format: binding, human
[12] = tested on: M1 – M4 muscarinic receptors; format: binding, human
guinea pig ileum = settings: cited from earlier work
[13] = read-out: inhibition of [3H]NMS binding

T1 sequence (P20309 whole entry D114N/D148N, looked up): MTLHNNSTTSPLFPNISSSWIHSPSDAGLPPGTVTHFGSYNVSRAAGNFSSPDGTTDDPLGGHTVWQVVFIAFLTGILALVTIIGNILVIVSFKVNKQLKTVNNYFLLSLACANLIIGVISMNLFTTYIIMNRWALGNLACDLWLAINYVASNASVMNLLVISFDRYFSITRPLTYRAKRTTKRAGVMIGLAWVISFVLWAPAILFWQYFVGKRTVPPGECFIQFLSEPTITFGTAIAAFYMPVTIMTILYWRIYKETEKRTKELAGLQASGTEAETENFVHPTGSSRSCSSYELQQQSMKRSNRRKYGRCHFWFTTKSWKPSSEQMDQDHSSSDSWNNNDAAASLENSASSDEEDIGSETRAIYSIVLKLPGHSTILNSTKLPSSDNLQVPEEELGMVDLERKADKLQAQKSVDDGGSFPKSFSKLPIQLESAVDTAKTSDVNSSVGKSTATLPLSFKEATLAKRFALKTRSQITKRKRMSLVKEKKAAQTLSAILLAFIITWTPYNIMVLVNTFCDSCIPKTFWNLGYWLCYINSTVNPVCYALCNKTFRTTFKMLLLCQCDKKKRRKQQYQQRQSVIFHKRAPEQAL
Chain of M2 wild type (P08172 whole entry): as the sequence (P08172 whole entry D103N, looked up) above, with N103D counted along it

In the case of `CC(=O)OCC[N+](C)(C)C` [Acetylcholine, acetylcholine], the “Hill slope of competition curve” value (M2 wild type) is reported as 0.69, the “affinity relative to the aziridinium ion of AChM” value (M2 wild type) is reported as “about 15 fold” and the “affinity relative to the aziridinium ion of AChM” value (wild type M4 receptors) is reported as “five-fold higher affinity”. The “Hill slope of competition curve” value (M3 D114N/D148N [1]) was 0.56.

In the case of `CN(CC#CCOC(=O)Nc1cccc(Cl)c1)CCBr` [BR384, 4-[(2-bromoethyl)methyl-amino]-2-butynyl N-(3-chlorophenyl)carbamate], the “Δ log K1” value (M2 D103N) is reported as 1.23 ± 0.26, the “increase in affinity relative to wild type” value (M2 D69N) is reported as “about 30 fold” and the “Δ log K1” value (M2 D69N) is reported as −1.39 ± 0.35. For the same compound, the “Δ log K1” value (M2 D103N + M2 D69N) was −0.17 ± 0.43, the “Δ log K1” value (M2 D69N/D103N [2]) was −0.25 ± 0.25 and the “Δ log K1” value (M3 D148N) was 1.17 ± 0.07. The “increase in affinity relative to wild type” value (M3 D114N) was ~5 fold, the “Δ log K1” value (M3 D114N) was −0.69 ± 0.02 and the “Δ log K1” value (M3 D148N + M3 D114N) was 0.48 ± 0.08. The “Δ log K1” value (M3 D114N/D148N [3]) was 0.75 ± 0.12, the “Δ log K1” value (M4 D112N) was 0.65 ± 0.13 and the “increase in affinity relative to wild type” value (M4 D78N) was “about 30 fold”. The “Δ log K1” value (M4 D78N) was −1.27 ± 0.11, the “Δ log K1” value (M4 D1 12N + M4 D78N) was −0.62 ± 0.17 and the “Δ log K1” value (M4 D78N/D112N [4]) was 0.69 ± 0.32 ^c. The “average estimate of k1” value (wild type M4 receptor) was 0.82 min⁻¹, the “b (proportion of receptors that can bind [3H]NMS but not be alkylated)” value (wild type M4 receptor) was 7.7 ± 1.8% and 7.7% and the “k1 (rate constant for alkylation)” value (wild type M4 receptor) was 0.93 ± .020 min⁻¹. The “rate constant (k1)” value (wild type M4 receptor) was 0.99 ± 0.045 min⁻¹ and 1.05 ± 0.10 min⁻¹ and 0.75 ± 0.06 min⁻¹ and 0.74 ± 0.086 min⁻¹, the Kd (wild type M4 receptor; average estimate of log K1) was 8.71 µM and the Kd (wild type M4 receptor; log K1 (dissociation constant of the aziridinium ion)) was 8.91 µM. For the same compound, the Kd (wild type M4 receptor; log dissociation constant (log K1)) was 12.3 µM and 7.94 µM and 6.76 µM, the alkylation (M2 D69N/D103N [5]) was 48 ± 4.2% and the alkylation (M4 D78N/D112N [6]) was 44 ± 0.6%. It also gave an IC50 (M2 D69N/D103N [7]) of 28.8 µM, an inhibition at 300 µM (M2 D69N/D103N [7]; [13]) of 97 ± 1.3% and an IC50 (M4 D78N/D112N [8]) of 69.2 µM. The inhibition at 300 µM (M4 D78N/D112N [8]; [13]) was 88 ± 0.7%, the “receptors alkylated after adding the stopping solution” value [9] was 28% and the “receptors alkylated after adding the stopping solution” value [10] was 28%. The “rate of recovery of [3H]NMS binding” value [11] was “negligible”, the “maximum estimate of b” value (M3 receptors) was 0.067 and the “maximum estimate of b” value (M4 receptors) was 0.085. The “affinity of the aziridinium ion relative to McN-A-343” value [12] was “four- to seven-fold higher affinity” and the contractile action (guinea pig ileum) was “lack of contractile action”.
